Measurements as given in patent US12077503B2, “Substituted cyclic amides and their use as herbicides” (FMC CORPORATION, priority 2015, dated 2024).
Where two headings read alike, the source gives them in different places.

What was measured:
Type in all cases: in vivo
Kochia (Kochia scoparia) [1] = experiment: Test A preemergence; settings: Bassia scoparia, pre-emergence, 240 h, preemergence, read-out: Kochia plant response rating; for pest or weed control at 125 g/ha: 125 g ai/ha, approx. 10 d; for pest or weed control at 500 g/ha: 500 g ai/ha
Procedure, shortened: (§1)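 Treatment is preemergence as a directed soil spray after planting, or postemergence at the one- to two-leaf stage, with test chemical in a non-phytotoxic solvent mixture plus surfactant. Plants stay in the greenhouse about 10 d before visual injury scoring on a 0 to 100 scale versus untreated controls.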

[2] = test system: giant foxtail (Setaria faberii); experiment: Test A preemergence; settings: Setaria faberi, pre-emergence, 240 h, preemergence, read-out: Foxtail, Giant plant response rating; for pest or weed control at 125 g/ha: 125 g ai/ha, approx. 10 d; for pest or weed control at 500 g/ha: 500 g ai/ha
Procedure, shortened: as §1

[3] = test system: pigweed (Amaranthus retroflexus); experiment: Test A preemergence; settings: Amaranthus retroflexus, pre-emergence, 240 h, preemergence, read-out: Pigweed plant response rating; for pest or weed control at 125 g/ha: 125 g ai/ha, approx. 10 d; for pest or weed control at 500 g/ha: 500 g ai/ha
[4] = test system: ragweed (common ragweed, Ambrosia elatior); experiment: Test A preemergence; settings: Ambrosia artemisiifolia, pre-emergence, 240 h, preemergence, read-out: Ragweed plant response rating; for pest or weed control at 125 g/ha: 125 g ai/ha, approx. 10 d; for pest or weed control at 500 g/ha: 500 g ai/ha
Procedure, shortened: as §1

[5] = test system: barnyardgrass (Echinochloa crus-galli); experiment: Test A preemergence; settings: Echinochloa crus-galli, pre-emergence, 240 h, preemergence, read-out: Barnyardgrass plant response rating; for pest or weed control at 125 g/ha: 125 g ai/ha, 0 to 100 scale where 0 is no effect and 100 is complete control, approx. 10 d; for pest or weed control at 500 g/ha: 500 g ai/ha, visual injury rating about 10 d after treatment, 0 to 100 scale (0 no effect, 100 complete control)
Procedure, shortened: as §1

[6] = test system: ryegrass, Italian (Italian ryegrass, Lolium multiflorum); experiment: Test A preemergence; settings: Lolium multiflorum, pre-emergence, 240 h, preemergence, read-out: Ryegrass, Italian plant response rating; for pest or weed control at 125 g/ha: 125 g ai/ha, approx. 10 d; for pest or weed control at 500 g/ha: 500 g ai/ha
Procedure, shortened: as §1

[7] = test system: ducksalad (Heteranthera limosa); experiment: Test B flooded paddy test; settings: Heteranthera limosa, 250 g ai/ha, Flood; 0 to 100 scale where 0 is no effect and 100 is complete control; read-out: Ducksalad plant response rating
Procedure, shortened: (§2)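 Rating scale 0–100 (visual, vs untreated controls) after a 13–15 d greenhouse period; application to the flood layer, 3 cm above soil and maintained; plants at 2-leaf stage when treated.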

[8] = test system: barnyardgrass (Echinochloa crus-galli); experiment: Test B flooded paddy test; settings: Echinochloa crus-galli, 250 g ai/ha, Flood; 0 to 100 scale where 0 is no effect and 100 is complete control; read-out: Barnyardgrass plant response rating
Procedure, shortened: as §2

[9] = test system: sedge, umbrella (small-flower umbrella sedge, Cyperus difformis); experiment: Test B flooded paddy test; settings: Cyperus difformis, 250 g ai/ha, Flood; 0 to 100 scale where 0 is no effect and 100 is complete control; read-out: Sedge, Umbrella plant response rating
Procedure, shortened: as §2

rice (Oryra sativa) = experiment: Test B flooded paddy test; settings: Oryza sativa, 250 g ai/ha, Flood; 0 to 100 scale where 0 is no effect and 100 is complete control; read-out: Rice plant response rating
Procedure, shortened: as §2

Kochia (Kochia scoparia) [10] = experiment: Test A postemergence; settings: Bassia scoparia, post-emergence, 240 h, postemergence, read-out: Kochia plant response rating; for pest or weed control at 125 g/ha: 125 g ai/ha, visual injury on 0 to 100 scale (0 no effect, 100 complete control), approx. 10 d; for pest or weed control at 500 g/ha: 500 g ai/ha, 0 to 100 scale, 0 is no effect, 100 is complete control
Procedure, shortened: as §1

[11] = test system: giant foxtail (Setaria faberii); experiment: Test A postemergence; settings: Setaria faberi, post-emergence, 240 h, postemergence, read-out: Foxtail, Giant plant response rating; for pest or weed control at 125 g/ha: 125 g ai/ha, visual injury on 0 to 100 scale (0 no effect, 100 complete control), approx. 10 d; for pest or weed control at 500 g/ha: 500 g ai/ha, 0 to 100 scale, 0 is no effect, 100 is complete control
Procedure, shortened: as §1

[12] = test system: barnyardgrass (Echinochloa crus-galli); experiment: Test A postemergence; settings: Echinochloa crus-galli, post-emergence, 240 h, postemergence, read-out: Barnyardgrass plant response rating; for pest or weed control at 125 g/ha: 125 g ai/ha, visual injury on 0 to 100 scale (0 no effect, 100 complete control), approx. 10 d; for pest or weed control at 500 g/ha: 500 g ai/ha, 0 to 100 scale, 0 is no effect, 100 is complete control
Procedure, shortened: as §1

[13] = test system: wheat (Triticum aestivum); experiment: Test A postemergence; settings: Triticum aestivum, post-emergence, 240 h, postemergence, read-out: Wheat plant response rating; for plant injury at 125 g/ha: 125 g ai/ha, visual injury on 0 to 100 scale (0 no effect, 100 complete control), approx. 10 d; for plant injury at 500 g/ha: 500 g ai/ha, 0 to 100 scale, 0 is no effect, 100 is complete control
Procedure, shortened: as §1

[14] = 0 to 100 scale where 0 is no effect and 100 is complete control
[15] = visual injury rating about 10 d after treatment, 0 to 100 scale (0 no effect, 100 complete control)

Compound | pest or weed control at 125 g/ha (Kochia (Kochia scoparia) [1]; [14]) | pest or weed control at 125 g/ha [2, 14] | pest or weed control at 125 g/ha [3, 14] | pest or weed control at 125 g/ha [4, 14] | pest or weed control at 125 g/ha [5] | pest or weed control at 500 g/ha [5] | pest or weed control at 125 g/ha [6, 14] | pest or weed control at 250 g/ha [7] | pest or weed control at 250 g/ha [8] | pest or weed control at 250 g/ha [9] | pest or weed control at 250 g/ha (rice (Oryra sativa)) | pest or weed control at 125 g/ha (Kochia (Kochia scoparia) [10]) | pest or weed control at 500 g/ha (Kochia (Kochia scoparia) [10]) | pest or weed control at 125 g/ha [11] | pest or weed control at 500 g/ha [11] | pest or weed control at 125 g/ha [12] | pest or weed control at 500 g/ha [12] | plant injury at 125 g/ha [13] | plant injury at 500 g/ha [13] | pest or weed control at 500 g/ha (Kochia (Kochia scoparia) [1]; [14]) | also measured
Cc1cc([C@H]2CN(C)C(=O)[C@@H]2C(=O)Nc2cccc(F)c2F)ccc1Br [Compound 1099] | 60% | 90% | 0% | 20% | 90% | 90% | 50% | 100% | 0% | 0% | 0% | 30% | 60% | 80% | 80% | 70% | 80% | 20% | 50% | – | pest or weed control at 500 g/ha (Kochia (Kochia scoparia) [1]; [15]): 70%; pest or weed control at 500 g/ha [2, 15]: 90%; pest or weed control at 500 g/ha [3, 15]: 30%; pest or weed control at 500 g/ha [4, 15]: 60%; pest or weed control at 500 g/ha [6, 15]: 70%
O=C1NC[C@H](c2cscn2)[C@H]1C(=O)Nc1cccc(F)c1F [Compound 1111] | 0% | 0% | 0% | 0% | 0% | 0% | 0% | 70% | 20% | 0% | 0% | 0% | 0% | 20% | 50% | 0% | 0% | 0% | 0% | 0% | pest or weed control at 500 g/ha [2, 14]: 0%; pest or weed control at 500 g/ha [3, 14]: 0%; pest or weed control at 500 g/ha [4, 14]: 0%; pest or weed control at 500 g/ha [6, 14]: 20%
O=C1NC[C@H](c2cc(C(F)F)cs2)[C@H]1C(=O)Nc1ccccc1F [Compound 1116] | 0% | 20% | 0% | 0% | 90% | 90% | 0% | 100% | 50% | 75% | 20% | 0% | 30% | 0% | 0% | 30% | 60% | 0% | 20% | 30% | pest or weed control at 500 g/ha [2, 14]: 90%; pest or weed control at 500 g/ha [3, 14]: 20%; pest or weed control at 500 g/ha [4, 14]: 20%; pest or weed control at 500 g/ha [6, 14]: 20%
O=C1NC[C@H](c2cc(C(F)F)cs2)[C@H]1C(=O)Nc1cccc(F)c1F [Compound 1117] | 40% | 50% | 0% | 20% | 90% | 90% | 0% | 100% | 60% | 0% | 20% | 20% | 40% | 20% | 70% | 80% | 90% | 0% | 70% | 70% | pest or weed control at 500 g/ha [2, 14]: 90%; pest or weed control at 500 g/ha [3, 14]: 0%; pest or weed control at 500 g/ha [4, 14]: 70%; pest or weed control at 500 g/ha [6, 14]: 60%
CN1C[C@H](c2csc(C(F)F)c2)[C@@H](C(=O)Nc2cccc(F)c2F)C1=O [Compound 1122] | 60% | 90% | 30% | 70% | 90% | 90% | 70% | 100% | 70% | 30% | 25% | 60% | 60% | 80% | 90% | 90% | 90% | 50% | 70% | 70% | pest or weed control at 500 g/ha [2, 14]: 90%; pest or weed control at 500 g/ha [3, 14]: 70%; pest or weed control at 500 g/ha [4, 14]: 80%; pest or weed control at 500 g/ha [6, 14]: 90%
